Reference: ChEMBL document CHEMBL4325871 (Eur J Med Chem, 2019)

Columns and labels:
[1] = biological target: Wee1-like protein kinase (Homo sapiens) (UniProt P30291); assay: Inhibition of human WEE1 assessed as residual activity at 100 uM using MBP as substrate by [gamma-33P]-ATP assay relative to control
[2] = biological target: T1, Serine/threonine-protein kinase WNK3 (Homo sapiens, UniProt Q9BYP7); assay: Inhibition of human WNK3 assessed as residual activity at 100 uM using MBP as substrate by [gamma-33P]-ATP assay relative to control
T1 sequence (Q9BYP7 whole entry): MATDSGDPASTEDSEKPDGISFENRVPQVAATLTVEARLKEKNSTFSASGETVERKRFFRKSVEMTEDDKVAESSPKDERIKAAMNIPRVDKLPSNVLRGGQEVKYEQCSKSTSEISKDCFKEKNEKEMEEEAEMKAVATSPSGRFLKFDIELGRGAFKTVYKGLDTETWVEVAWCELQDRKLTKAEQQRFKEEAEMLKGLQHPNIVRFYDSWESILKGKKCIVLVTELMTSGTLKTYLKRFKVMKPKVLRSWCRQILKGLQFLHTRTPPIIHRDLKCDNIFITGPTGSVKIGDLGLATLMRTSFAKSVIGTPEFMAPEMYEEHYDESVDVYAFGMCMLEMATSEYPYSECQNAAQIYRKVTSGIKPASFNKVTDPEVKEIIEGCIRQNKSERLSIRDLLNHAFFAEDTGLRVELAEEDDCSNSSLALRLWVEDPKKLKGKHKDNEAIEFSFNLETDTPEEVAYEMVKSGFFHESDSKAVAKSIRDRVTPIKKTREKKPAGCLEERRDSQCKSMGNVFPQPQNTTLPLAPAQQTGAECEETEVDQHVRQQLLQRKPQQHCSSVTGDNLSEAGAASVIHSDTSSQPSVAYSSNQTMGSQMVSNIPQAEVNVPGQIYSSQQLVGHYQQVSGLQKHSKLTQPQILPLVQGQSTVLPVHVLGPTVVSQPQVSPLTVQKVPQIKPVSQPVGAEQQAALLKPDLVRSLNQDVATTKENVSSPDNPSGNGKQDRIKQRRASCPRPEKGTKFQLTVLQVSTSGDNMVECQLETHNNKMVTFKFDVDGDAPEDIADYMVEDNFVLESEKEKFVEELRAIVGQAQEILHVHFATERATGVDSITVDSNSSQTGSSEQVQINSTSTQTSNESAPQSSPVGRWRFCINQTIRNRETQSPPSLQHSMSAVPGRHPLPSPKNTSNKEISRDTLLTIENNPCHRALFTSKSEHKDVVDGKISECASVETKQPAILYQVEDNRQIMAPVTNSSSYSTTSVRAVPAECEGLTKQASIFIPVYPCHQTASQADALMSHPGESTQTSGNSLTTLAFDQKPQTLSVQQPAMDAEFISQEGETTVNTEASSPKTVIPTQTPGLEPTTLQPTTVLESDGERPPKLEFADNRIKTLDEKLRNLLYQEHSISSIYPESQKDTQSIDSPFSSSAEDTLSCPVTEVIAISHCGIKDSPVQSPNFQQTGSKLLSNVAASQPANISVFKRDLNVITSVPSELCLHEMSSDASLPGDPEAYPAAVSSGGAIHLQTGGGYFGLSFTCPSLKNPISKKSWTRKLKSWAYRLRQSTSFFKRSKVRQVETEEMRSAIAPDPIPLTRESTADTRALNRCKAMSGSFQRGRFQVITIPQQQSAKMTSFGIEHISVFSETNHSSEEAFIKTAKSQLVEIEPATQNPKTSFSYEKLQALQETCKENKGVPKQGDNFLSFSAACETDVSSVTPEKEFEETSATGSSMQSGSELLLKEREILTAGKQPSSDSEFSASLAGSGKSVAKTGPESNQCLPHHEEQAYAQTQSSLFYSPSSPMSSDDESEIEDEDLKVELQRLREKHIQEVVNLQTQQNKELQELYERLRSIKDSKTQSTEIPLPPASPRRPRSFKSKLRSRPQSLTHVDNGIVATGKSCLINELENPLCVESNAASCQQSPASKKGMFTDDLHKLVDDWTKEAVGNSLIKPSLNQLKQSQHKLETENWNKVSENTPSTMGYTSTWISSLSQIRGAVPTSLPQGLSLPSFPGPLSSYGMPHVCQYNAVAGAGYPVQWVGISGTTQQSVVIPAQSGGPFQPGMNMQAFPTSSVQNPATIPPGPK

[3] = biological target: T1, Serine/threonine-protein kinase WNK3
[4] = biological target: Tyrosine-protein kinase JAK3 (Homo sapiens) (UniProt P52333); assay: Inhibition of human JAK3 assessed as residual activity at 100 uM using poly[Glu:Tyr] (4:1) as substrate by [gamma-33P]-ATP assay relative to control
[5] = biological target: T2, Serine/threonine-protein kinase Nek6 (Homo sapiens, UniProt Q9HC98); assay: Inhibition of human NEK6 assessed as residual activity at 100 uM using casein as substrate by [gamma-33P]-ATP assay relative to control
T2 sequence (Q9HC98 whole entry): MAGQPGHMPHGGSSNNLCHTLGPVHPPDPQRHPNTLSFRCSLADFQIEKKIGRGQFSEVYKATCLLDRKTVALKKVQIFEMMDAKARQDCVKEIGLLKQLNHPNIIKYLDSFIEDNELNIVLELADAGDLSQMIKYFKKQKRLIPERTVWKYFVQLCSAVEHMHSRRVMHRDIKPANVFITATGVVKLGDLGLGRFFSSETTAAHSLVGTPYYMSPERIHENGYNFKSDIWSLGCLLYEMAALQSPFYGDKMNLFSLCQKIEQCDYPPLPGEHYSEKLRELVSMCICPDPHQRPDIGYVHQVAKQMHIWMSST

[6] = biological target: T3, Serine/threonine-protein kinase Nek7 (Homo sapiens, UniProt Q8TDX7); assay: Inhibition of human NEK7 assessed as residual activity at 100 uM using casein as substrate by [gamma-33P]-ATP assay relative to control
[7] = biological target: T2, Serine/threonine-protein kinase Nek6
[8] = biological target: T3, Serine/threonine-protein kinase Nek7
Tau-tubulin kinase 1 [9] = biological target: T4, Tau-tubulin kinase 1 (Homo sapiens, UniProt Q5TCY1)
T4 sequence (Q5TCY1 whole entry): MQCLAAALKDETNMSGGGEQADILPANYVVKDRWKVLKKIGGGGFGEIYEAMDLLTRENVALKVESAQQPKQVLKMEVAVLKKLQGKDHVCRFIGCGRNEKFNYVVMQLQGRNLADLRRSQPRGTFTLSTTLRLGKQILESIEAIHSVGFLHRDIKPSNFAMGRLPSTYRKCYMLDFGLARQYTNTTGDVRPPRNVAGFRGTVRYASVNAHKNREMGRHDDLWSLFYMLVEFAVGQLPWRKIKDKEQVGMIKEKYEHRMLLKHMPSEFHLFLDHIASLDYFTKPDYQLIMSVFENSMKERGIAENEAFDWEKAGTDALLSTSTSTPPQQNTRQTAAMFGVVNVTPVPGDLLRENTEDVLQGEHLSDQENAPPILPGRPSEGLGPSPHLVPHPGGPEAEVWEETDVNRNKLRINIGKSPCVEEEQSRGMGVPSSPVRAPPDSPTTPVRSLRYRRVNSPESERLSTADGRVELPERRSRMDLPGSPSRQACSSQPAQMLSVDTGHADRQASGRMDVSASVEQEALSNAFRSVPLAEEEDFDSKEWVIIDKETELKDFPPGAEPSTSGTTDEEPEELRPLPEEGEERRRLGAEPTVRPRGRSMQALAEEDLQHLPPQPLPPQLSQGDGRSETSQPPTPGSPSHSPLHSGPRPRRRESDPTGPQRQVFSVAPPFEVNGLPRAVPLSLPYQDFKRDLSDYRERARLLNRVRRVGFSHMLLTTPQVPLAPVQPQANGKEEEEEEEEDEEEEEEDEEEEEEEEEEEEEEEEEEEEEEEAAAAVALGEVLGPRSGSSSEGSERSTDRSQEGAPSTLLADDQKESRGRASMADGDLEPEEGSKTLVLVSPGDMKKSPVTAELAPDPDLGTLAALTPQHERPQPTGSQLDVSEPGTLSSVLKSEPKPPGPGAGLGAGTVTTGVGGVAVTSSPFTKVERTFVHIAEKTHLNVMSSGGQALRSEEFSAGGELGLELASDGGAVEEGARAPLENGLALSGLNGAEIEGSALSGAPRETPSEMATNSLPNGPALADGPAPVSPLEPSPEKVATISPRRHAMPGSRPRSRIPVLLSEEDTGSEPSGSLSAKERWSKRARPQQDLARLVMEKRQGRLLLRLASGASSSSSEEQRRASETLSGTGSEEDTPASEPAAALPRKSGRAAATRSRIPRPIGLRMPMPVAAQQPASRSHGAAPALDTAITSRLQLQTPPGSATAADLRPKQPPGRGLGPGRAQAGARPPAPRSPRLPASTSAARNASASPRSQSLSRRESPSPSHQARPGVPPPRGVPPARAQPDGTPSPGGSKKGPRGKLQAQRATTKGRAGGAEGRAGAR

[10] = biological target: T5, Mitogen-activated protein kinase kinase kinase 8 (Homo sapiens, UniProt P41279); assay: Inhibition of human COT1 assessed as residual activity at 100 uM using MEK1 as substrate by [gamma-33P]-ATP assay relative to control
T5 sequence (P41279 whole entry): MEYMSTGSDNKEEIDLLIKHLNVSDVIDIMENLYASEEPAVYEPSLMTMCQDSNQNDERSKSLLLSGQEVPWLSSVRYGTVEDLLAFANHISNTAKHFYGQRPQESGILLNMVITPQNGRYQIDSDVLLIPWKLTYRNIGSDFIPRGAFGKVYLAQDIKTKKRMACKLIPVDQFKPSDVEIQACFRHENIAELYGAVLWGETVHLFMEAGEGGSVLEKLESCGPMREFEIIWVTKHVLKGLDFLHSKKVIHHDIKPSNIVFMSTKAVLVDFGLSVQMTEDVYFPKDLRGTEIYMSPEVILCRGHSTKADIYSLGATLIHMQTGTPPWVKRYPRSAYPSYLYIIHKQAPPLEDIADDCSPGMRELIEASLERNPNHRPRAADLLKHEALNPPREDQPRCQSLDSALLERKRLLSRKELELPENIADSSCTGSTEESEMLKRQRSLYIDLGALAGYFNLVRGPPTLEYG

[11] = biological target: T6, Homeodomain-interacting protein kinase 1 (Homo sapiens, UniProt Q86Z02); assay: Inhibition of human HIPK1 assessed as residual activity at 100 uM using MBP as substrate by [gamma-33P]-ATP assay relative to control
[12] = biological target: T7, Mitogen-activated protein kinase kinase kinase kinase 1 (Homo sapiens, UniProt Q92918); assay: Inhibition of human HPK1 assessed as residual activity at 100 uM using MBP as substrate by [gamma-33P]-ATP assay relative to control
[13] = biological target: T8, Serine/threonine-protein kinase VRK2 (Homo sapiens, UniProt Q86Y07); assay: Inhibition of human VRK2 assessed as residual activity at 100 uM using casein as substrate by [gamma-33P]-ATP assay relative to control
T8 sequence (Q86Y07 whole entry): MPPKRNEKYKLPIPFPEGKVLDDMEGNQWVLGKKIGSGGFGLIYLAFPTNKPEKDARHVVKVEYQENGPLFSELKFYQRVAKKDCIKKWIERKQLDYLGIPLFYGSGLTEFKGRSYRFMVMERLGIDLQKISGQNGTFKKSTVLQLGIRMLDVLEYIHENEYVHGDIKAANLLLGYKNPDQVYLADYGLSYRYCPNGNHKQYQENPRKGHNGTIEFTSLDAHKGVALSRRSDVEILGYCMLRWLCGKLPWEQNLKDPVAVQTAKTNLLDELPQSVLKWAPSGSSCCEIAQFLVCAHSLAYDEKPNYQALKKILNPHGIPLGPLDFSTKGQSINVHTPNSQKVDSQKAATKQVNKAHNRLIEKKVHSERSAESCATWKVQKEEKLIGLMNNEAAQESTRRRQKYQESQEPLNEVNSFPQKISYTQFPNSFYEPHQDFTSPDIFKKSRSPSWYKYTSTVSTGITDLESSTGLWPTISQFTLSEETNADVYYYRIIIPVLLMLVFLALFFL

[14] = biological target: T5, Mitogen-activated protein kinase kinase kinase 8
[15] = biological target: T6, Homeodomain-interacting protein kinase 1
[16] = biological target: T7, Mitogen-activated protein kinase kinase kinase kinase 1
[17] = biological target: Serine/threonine-protein kinase VRK1 (Homo sapiens, UniProt Q99986)
[18] = biological target: T8, Serine/threonine-protein kinase VRK2
[19] = biological target: T9, Serine/threonine-protein kinase A-Raf (Homo sapiens) (UniProt P10398); assay: Inhibition of human ARAF assessed as residual activity at 100 uM using MEK1 as substrate by [gamma-33P]-ATP assay relative to control
T9 sequence (whole entry): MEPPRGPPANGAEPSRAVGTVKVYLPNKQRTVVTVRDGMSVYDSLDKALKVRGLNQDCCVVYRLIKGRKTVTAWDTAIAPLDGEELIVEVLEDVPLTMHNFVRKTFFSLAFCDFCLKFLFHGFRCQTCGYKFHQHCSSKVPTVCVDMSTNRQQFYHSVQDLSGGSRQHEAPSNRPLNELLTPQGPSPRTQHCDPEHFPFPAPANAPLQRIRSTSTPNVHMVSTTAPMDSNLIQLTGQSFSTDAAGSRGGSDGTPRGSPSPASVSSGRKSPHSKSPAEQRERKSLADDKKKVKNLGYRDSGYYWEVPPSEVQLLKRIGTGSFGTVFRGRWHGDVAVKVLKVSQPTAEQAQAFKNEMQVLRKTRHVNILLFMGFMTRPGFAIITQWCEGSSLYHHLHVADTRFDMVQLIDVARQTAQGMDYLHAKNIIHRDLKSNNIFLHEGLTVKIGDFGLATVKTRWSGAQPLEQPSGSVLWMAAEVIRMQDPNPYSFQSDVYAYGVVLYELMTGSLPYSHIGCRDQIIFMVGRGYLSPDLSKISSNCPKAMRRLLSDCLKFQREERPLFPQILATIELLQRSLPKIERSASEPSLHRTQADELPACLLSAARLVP

[20] = biological target: T10, Casein kinase II subunit alpha (Homo sapiens, UniProt P68400); assay: Inhibition of human CK2A assessed as residual activity at 100 uM using RRRDDDSDDD as substrate by [gamma-33P]-ATP assay relative to control
[21] = biological target: Dual specificity tyrosine-phosphorylation-regulated kinase 4 (Homo sapiens) (UniProt Q9NR20); assay: Inhibition of human DYRK4 assessed as residual activity at 100 uM using RRRFRPASPLRGPPK as substrate by [gamma-33P]-ATP assay relative to control
[22] = biological target: T11, Receptor-interacting serine/threonine-protein kinase 3 (Homo sapiens, UniProt Q9Y572); assay: Inhibition of human RIPK3 assessed as residual activity at 100 uM using MBP as substrate by [gamma-33P]-ATP assay relative to control
[23] = biological target: T12, Mitogen-activated protein kinase kinase kinase 20 (Homo sapiens, UniProt Q9NYL2); assay: Inhibition of human ZAK assessed as residual activity at 100 uM using MBP as substrate by [gamma-33P]-ATP assay relative to control
[24] = biological target: Serine/threonine-protein kinase A-Raf (Homo sapiens, UniProt P10398)
[25] = biological target: T10, Casein kinase II subunit alpha
[26] = biological target: Dual specificity tyrosine-phosphorylation-regulated kinase 4 (Homo sapiens, UniProt Q9NR20)
[27] = biological target: T11, Receptor-interacting serine/threonine-protein kinase 3
[28] = biological target: T12, Mitogen-activated protein kinase kinase kinase 20
[29] = biological target: Mitogen-activated protein kinase 11 (Homo sapiens) (UniProt Q15759); assay: Inhibition of human p38beta assessed as residual activity at 100 uM using MBP as substrate by [gamma-33P]-ATP assay relative to control
Tau-tubulin kinase 1 [30] = biological target: T4, Tau-tubulin kinase 1; assay: Inhibition of human TTBK1 assessed as residual activity at 100 uM using MBP as substrate by [gamma-33P]-ATP assay relative to control
[31] = biological target: Tau-tubulin kinase 2 (Homo sapiens) (UniProt Q6IQ55); assay: Inhibition of human TTBK2 assessed as residual activity at 100 uM using MBP as substrate by [gamma-33P]-ATP assay relative to control
[32] = biological target: Activin receptor type-1-like (Homo sapiens) (UniProt P37023); assay: Inhibition of human ALK1 assessed as residual activity at 100 uM using casein as substrate by [gamma-33P]-ATP assay relative to control
[33] = biological target: Bone morphogenetic protein receptor type-1A (Homo sapiens) (UniProt P36894); assay: Inhibition of human ALK3 assessed as residual activity at 100 uM using casein as substrate by [gamma-33P]-ATP assay relative to control
[34] = biological target: Activin receptor type-1B (Homo sapiens) (UniProt P36896); assay: Inhibition of human ALK4 assessed as residual activity at 100 uM using casein as substrate by [gamma-33P]-ATP assay relative to control
[35] = biological target: Bone morphogenetic protein receptor type-1B (Homo sapiens) (UniProt O00238); assay: Inhibition of human ALK6 assessed as residual activity at 100 uM using casein as substrate by [gamma-33P]-ATP assay relative to control
TGF-beta receptor type-2 [36] = biological target: T13, TGF-beta receptor type-2 (Homo sapiens, UniProt P37173); assay: Inhibition of human TGFBR2 assessed as residual activity at 100 uM using MBP as substrate by [gamma-33P]-ATP assay relative to control
T13 sequence (P37173 whole entry): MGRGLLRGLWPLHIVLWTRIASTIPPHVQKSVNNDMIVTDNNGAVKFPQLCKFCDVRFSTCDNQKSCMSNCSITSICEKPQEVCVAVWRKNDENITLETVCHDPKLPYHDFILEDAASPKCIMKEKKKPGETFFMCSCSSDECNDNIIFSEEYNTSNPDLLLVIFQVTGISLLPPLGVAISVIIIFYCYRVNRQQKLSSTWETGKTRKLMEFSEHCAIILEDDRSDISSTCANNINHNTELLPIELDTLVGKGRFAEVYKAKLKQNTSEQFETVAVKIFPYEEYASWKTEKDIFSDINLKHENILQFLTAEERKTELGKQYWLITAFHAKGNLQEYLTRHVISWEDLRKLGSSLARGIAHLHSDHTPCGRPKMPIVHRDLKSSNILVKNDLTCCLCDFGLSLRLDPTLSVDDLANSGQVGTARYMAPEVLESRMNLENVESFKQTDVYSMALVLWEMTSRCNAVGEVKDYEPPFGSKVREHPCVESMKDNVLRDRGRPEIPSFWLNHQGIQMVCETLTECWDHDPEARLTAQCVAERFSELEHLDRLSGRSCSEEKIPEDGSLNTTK

TGF-beta receptor type-2 [37] = biological target: T13, TGF-beta receptor type-2

## C=CCn1c(=O)c2cnc(Nc3ccc(N4CCN(C)CC4)cc3)nc2n1-c1cccc(C(C)(C)O)n1 [ADAVOSERTIB]
[1]
  Activity: < 65%
[2]
  Activity: < 65%
[3]
  IC50: 2.31 µM

## CCOc1nc(NC(=O)Cc2cc(OC)ccc2OC)cc(N)c1C#N
[4]
  Activity: < 65%

## O=C1Nc2ccc3ncsc3c2/C1=C/c1c[nH]cn1
[5]
  Activity: < 65%
[6]
  Activity: < 65%
[7]
  IC50: 59.8 µM
[8]
  IC50: 7.28 µM

## Oc1ccc(-c2nc(-c3ccncc3)c(-c3ccc(F)cc3)[nH]2)cc1 [SB-202190]
Tau-tubulin kinase 1 [9]
  IC50: 47.2 µM

## Cn1cc(C2=C(c3cn(CCCSC(=N)N)c4ccccc34)C(=O)NC2=O)c2ccccc21 [BISINDOLYLMALEIMIDE IX]
[10]
  Activity: < 65%
[11]
  Activity: < 65%
[12]
  Activity: < 65%
[13]
  Activity: < 65%
[14]
  IC50: 9.95 µM
[15]
  IC50: 0.621 µM
[16]
  IC50: 0.0529 µM
[17]
  IC50: 0.743 µM
[18]
  IC50: 16.4 µM

## O=C1Nc2ccc(I)cc2C1=Cc1cc(Br)c(O)c(Br)c1 [GW305074X]
[19]
  Activity: < 65%
[20]
  Activity: < 65%
[21]
  Activity: < 65%
[22]
  Activity: < 65%
[23]
  Activity: < 65%
[24]
  IC50: 0.0146 µM
[25]
  IC50: 0.279 µM
[26]
  IC50: 4.38 µM
[27]
  IC50: 5.4 µM
[28]
  IC50: 1.89 µM

## Oc1ccc(-c2nc(-c3ccc(F)cc3)c(-c3ccncc3)[nH]2)cc1
[29]
  Activity: < 65%
Tau-tubulin kinase 1 [30]
  Activity: < 65%
[31]
  Activity: < 65%

## c1ccc2c(-c3cnn4cc(-c5ccc(N6CCNCC6)cc5)cnc34)ccnc2c1
[32]
  Activity: < 65%
[33]
  Activity: < 65%
[34]
  Activity: < 65%
[35]
  Activity: < 65%
TGF-beta receptor type-2 [36]
  Activity: < 65%
TGF-beta receptor type-2 [37]
  IC50: 0.156 µM
